For test [1], the system named is protoplasts from UT leaves. The test can be described thus: Protoplast culture with hormones or hormone conjugates, UT protoplasts. In kind it is cell-based, Nicotiana tabacum. Conditions: for Division Efficiency / Plating Efficiency: hormone concentration in mg L^−1. As for the experimental part:
(§1) To evaluate the effects of hormones or hormone conjugates on protoplast division, six hormones or conjugate combinations (Table IV) were tested in the protoplast culture.
(§2) The protocol of the protoplast isolation was modified from the method of Rao and Prakash (1995). Leaves from BGL-1 and UT were cut into small pieces and placed on the surface of the enzyme solution with the lower surface down. Incubation was carried out in the dark at a temperature of 25° C.±1° C. for 8 h to release the protoplasts. The enzymatic cocktail contained 2% (w/v) cellulase Onozuka R-10, 0.5% (w/v) macerozyme R-10, 0.2% (w/v) dextran potassium sulfate, 5 mm CaCl2.2H2O, and 0.7 m mannitol, pH 5.8. After removing undigested materials and digested debris by filtration through a […] steel mesh, the enzymatic mixture was centrifuged at 1,000 rpm for 10 min. The protoplasts were resuspended in 5 mL of washing medium, and the process was repeated three times. Protoplasts were cultured at a density of 2×10^5 mL^−1 in 5-cm petri dishes in 3 mL of culture medium (Rao and Prakash, 1995) supplemented with different hormone or conjugate hormone regimes (Table IV). The cultures were kept at 25° C. in the dark. After 7 d, fresh medium was added to each petri dish, and the addition of medium was repeated on the 11th d of culture. […] After the development of microcalli visible to the naked eye, the cultures were transferred to light.

Test [2] concerns protoplasts from BGL-1 leaves. In words: Protoplast culture with hormones or hormone conjugates, BGL-1 protoplasts. In kind it is cell-based, Nicotiana tabacum. Conditions: for Division Efficiency / Plating Efficiency: BGL-1 protoplasts, hormone concentration in mg L^−1. As to the method:
as §1, §2

`C/C(=C\CNc1ncnc2[nH]cnc12)CO` [Zeatin (1.0), Zeatin]: the “Division Efficiency” value turned out to be 6.8 ± 0.9% in test [1] and 10.6 ± 0.8% in test [2]. Moreover, the figures for the “Plating Efficiency” value in test [1] and in test [2] were 4.6 ± 0.3% and 6.2 ± 0.4%, respectively.
On the same counts, the results for “Naphthylacetic acid [Naphthylacetic acid (3.0)]” are 4.8 ± 0.7%, 9.1 ± 1.8%, 3.3 ± 0.2% and 4.3 ± 0.5%.
As for “Zeatin-O-glucoside [Zeatin-O-glucoside (1.0)]”, the “Division Efficiency” value in test [1] is listed as 0%; in test [2], 7.5 ± 1.2%. In addition, the “Plating Efficiency” value in test [1] was determined as 0%; in test [2], 3.7 ± 0.3%. The “protoplast division and cell colony formation” value in test [1] (zeatin-O-glucoside only) was “did not divide and form cell colonies”. Further, the “increase of cell division efficiency of BGL-1 protoplasts compared with UT protoplasts” value in test [2] (exogenously supplied zeatin-O-glucoside) was determined as 670%.

For the origin of these results see patent US20140033367A1 (priority 2010, published 2014).
